Results as given in publication PMC4505863 (ACS Chemical Neuroscience, 2014).
Where two headings read alike, the source gives them in different places.

How the values were obtained:
5-HT2A receptor [1] = target: T1, 5-HT2A receptor (Homo sapiens, UniProt P28223); assay: h5-HT2A affinity, antagonist radioligand [3H]ketanserin; format: binding
5-HT2A receptor [2] = target: T1, 5-HT2A receptor; assay: h5-HT2A affinity, agonist radioligand [125I]DOI; format: binding
human 5-HT2C receptor [3] = target: T2, human 5-HT2C receptor (Homo sapiens, UniProt P28335); assay: h5-HT2C affinity, antagonist radioligand [3H]mesulergine; format: binding
T2 sequence (P28335 33-458): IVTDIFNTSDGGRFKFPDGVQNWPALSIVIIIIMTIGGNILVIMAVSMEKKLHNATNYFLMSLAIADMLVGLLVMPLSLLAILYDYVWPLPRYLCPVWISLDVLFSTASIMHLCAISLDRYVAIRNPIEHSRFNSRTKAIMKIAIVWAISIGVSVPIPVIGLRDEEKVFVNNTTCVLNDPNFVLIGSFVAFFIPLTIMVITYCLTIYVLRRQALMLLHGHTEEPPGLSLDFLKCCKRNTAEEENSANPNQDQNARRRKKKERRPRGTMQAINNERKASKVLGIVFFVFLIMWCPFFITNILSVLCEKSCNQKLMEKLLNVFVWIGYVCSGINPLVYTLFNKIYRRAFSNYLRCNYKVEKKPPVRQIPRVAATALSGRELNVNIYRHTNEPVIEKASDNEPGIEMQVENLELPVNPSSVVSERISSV

human 5-HT2C receptor [4] = target: T2, human 5-HT2C receptor; assay: h5-HT2C affinity, agonist radioligand [125I]DOI; format: binding
5-HT2B = 5-HT2B (Homo sapiens, UniProt P41595); assay: PDSP screening affinity 5-HT2B; format: binding
5-HT1A = target: T3, 5-HT1A (Homo sapiens, UniProt P08908); assay: PDSP screening affinity 5-HT1A; format: binding
T3 sequence (P08908 1-422): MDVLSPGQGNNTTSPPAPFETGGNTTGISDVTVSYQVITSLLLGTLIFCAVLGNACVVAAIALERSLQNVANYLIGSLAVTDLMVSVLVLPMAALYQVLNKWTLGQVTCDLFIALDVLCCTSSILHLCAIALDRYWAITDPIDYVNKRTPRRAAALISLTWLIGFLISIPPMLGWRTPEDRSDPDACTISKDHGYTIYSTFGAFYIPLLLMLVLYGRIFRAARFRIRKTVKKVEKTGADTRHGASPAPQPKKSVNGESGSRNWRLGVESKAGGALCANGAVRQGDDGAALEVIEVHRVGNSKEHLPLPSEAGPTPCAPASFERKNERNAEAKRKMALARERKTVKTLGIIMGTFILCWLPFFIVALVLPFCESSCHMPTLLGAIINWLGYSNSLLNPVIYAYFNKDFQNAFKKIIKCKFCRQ

5-HT1B = 5-HT1B (Homo sapiens, UniProt P28222); assay: PDSP screening affinity 5-HT1B; format: binding
5-HT1D = 5-HT1D (Homo sapiens, UniProt P28221); assay: PDSP screening affinity 5-HT1D; format: binding
5-ht1e = 5-ht1e (Homo sapiens, UniProt P28566); assay: PDSP screening affinity 5-ht1e; format: binding
5-HT3 = target: T4, 5-HT3 (Homo sapiens, UniProt P46098); assay: PDSP screening affinity 5-HT3; format: binding
T4 sequence (P46098 24-478): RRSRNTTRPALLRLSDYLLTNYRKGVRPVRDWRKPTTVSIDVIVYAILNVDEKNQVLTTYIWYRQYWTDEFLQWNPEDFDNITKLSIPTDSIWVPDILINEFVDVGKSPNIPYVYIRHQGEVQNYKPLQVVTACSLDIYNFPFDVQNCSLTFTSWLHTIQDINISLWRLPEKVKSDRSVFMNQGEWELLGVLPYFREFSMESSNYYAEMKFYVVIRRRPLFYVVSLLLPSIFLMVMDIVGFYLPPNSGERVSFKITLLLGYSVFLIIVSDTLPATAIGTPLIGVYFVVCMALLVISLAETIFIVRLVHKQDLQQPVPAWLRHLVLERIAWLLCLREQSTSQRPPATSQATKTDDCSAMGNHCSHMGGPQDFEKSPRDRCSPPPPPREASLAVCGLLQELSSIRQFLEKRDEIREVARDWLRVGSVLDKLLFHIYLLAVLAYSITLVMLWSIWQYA

5-ht5a = 5-ht5a (Homo sapiens, UniProt P47898); assay: PDSP screening affinity 5-ht5a; format: binding
5-HT6 = 5-HT6 (Homo sapiens, UniProt P50406); assay: PDSP screening affinity 5-HT6; format: binding
5-HT7 = 5-HT7 (Homo sapiens, UniProt P34969); assay: PDSP screening affinity 5-HT7; format: binding
r5-HT2A = r5-HT2A (Rattus norvegicus, UniProt P14842); assay: Ca2+ mobilization assay; format: cell-based
h5-HT2A = h5-HT2A (Homo sapiens, UniProt P28223); assay: Ca2+ mobilization assay; format: cell-based
h5-HT2B = h5-HT2B (Homo sapiens, UniProt P41595); assay: Ca2+ mobilization assay; format: cell-based
r5-HT2C = target: T5, r5-HT2C (Rattus norvegicus, UniProt P08909); assay: Ca2+ mobilization assay; format: cell-based
T5 sequence (P08909 33-460): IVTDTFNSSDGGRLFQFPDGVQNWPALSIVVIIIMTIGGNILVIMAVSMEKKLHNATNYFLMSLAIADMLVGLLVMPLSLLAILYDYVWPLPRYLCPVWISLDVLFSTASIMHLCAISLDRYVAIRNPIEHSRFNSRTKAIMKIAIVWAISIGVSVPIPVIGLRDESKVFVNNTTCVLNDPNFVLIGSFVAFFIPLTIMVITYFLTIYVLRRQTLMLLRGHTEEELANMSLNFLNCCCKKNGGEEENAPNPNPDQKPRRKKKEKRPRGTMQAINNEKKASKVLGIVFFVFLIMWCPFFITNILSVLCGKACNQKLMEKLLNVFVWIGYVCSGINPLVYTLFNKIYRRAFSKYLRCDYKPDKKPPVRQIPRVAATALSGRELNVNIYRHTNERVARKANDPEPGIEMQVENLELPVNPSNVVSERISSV

h5-HT2C = target: T6, h5-HT2C (Homo sapiens, UniProt P28335); assay: Ca2+ mobilization assay; format: cell-based
T6 sequence (P28335 33-458): T2 sequence (P28335 33-458)

Male C57BL/6J mice = assay: Mouse head twitch response; conditions: for max counts: HTR counts; for active doses / magnitude of peak effect × vehicle / maximally effective dose: mouse head twitch; for HTR at 30 mg/kg: biphasic bell-shaped dose–response, 30 mg/kg SC
[5] = [125I]DOI, n = 3–5 displacement curves
[6] = percentage of the maximum response to 5-HT

5-HT2B, sequence (P41595 whole entry): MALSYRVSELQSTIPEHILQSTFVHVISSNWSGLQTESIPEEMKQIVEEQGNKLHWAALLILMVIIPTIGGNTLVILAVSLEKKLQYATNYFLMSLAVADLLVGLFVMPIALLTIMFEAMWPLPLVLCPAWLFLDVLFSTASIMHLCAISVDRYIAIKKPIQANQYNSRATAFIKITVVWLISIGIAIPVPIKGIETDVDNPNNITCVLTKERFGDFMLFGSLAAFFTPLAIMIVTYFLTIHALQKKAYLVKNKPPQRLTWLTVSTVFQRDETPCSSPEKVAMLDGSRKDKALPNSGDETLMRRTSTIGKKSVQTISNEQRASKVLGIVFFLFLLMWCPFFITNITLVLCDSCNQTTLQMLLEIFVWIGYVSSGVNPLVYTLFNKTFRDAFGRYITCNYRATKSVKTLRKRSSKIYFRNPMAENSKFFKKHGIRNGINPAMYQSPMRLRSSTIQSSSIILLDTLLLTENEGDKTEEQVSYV
h5-HT2B, sequence (P41595 whole entry): as above
T1 sequence (P28223 whole entry): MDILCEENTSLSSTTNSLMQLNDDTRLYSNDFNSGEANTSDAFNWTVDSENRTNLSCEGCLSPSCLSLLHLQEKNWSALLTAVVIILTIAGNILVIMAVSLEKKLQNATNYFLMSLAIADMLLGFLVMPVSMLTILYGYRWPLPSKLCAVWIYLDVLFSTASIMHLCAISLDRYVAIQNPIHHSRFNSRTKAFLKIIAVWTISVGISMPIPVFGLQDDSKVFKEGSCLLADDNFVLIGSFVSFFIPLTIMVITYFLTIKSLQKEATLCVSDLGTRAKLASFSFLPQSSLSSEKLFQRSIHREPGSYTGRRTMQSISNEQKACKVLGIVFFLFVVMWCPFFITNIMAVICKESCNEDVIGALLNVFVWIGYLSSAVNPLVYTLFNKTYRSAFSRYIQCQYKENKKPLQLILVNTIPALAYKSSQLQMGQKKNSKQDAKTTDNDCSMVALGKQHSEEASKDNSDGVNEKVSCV
h5-HT2A, sequence (P28223 whole entry): as above
5-HT7, sequence (P34969 whole entry): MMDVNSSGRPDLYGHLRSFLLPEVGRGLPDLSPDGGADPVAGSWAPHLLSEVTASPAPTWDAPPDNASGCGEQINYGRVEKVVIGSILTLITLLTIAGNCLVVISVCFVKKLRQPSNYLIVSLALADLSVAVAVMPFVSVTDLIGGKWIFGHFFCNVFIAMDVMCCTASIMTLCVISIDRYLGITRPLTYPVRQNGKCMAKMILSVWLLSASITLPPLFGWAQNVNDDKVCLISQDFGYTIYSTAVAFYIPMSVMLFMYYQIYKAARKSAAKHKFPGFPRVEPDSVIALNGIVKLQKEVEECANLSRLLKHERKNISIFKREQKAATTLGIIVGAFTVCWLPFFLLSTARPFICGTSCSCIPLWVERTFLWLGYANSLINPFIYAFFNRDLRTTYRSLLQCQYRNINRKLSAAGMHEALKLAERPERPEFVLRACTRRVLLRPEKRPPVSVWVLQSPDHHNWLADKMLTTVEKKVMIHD
5-HT1B, sequence (P28222 whole entry): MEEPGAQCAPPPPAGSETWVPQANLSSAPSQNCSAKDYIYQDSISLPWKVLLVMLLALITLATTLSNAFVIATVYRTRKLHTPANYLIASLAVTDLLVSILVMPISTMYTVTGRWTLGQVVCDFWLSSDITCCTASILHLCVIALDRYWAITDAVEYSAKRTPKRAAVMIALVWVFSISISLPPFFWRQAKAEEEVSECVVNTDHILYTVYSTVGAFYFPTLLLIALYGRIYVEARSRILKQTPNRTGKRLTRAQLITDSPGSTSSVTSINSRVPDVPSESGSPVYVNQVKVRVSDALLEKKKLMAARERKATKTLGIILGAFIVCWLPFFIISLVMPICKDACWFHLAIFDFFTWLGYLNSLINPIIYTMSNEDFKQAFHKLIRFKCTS
5-ht1e, sequence (P28566 whole entry): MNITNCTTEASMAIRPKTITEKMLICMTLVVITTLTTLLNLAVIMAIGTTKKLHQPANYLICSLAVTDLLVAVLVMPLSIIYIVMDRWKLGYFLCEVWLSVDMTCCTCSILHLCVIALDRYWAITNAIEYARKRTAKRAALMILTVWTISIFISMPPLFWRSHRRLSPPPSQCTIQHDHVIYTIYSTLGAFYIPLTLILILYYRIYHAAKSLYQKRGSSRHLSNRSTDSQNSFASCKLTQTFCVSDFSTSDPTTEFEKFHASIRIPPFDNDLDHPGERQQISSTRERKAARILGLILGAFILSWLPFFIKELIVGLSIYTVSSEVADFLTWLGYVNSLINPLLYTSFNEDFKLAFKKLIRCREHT
r5-HT2A, sequence (P14842 whole entry): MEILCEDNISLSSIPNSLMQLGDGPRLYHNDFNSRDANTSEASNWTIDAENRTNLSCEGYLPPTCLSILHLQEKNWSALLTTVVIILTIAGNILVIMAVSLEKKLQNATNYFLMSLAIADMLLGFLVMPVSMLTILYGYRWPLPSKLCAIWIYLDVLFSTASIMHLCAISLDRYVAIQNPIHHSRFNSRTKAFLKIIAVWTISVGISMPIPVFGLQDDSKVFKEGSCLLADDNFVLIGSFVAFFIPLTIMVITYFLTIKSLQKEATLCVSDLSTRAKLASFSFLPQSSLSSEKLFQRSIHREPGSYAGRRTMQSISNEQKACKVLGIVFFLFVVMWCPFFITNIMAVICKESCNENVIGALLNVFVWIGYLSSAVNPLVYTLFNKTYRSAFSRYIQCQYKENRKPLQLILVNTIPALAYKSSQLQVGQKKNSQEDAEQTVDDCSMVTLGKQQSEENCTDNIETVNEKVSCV
5-HT6, sequence (P50406 whole entry): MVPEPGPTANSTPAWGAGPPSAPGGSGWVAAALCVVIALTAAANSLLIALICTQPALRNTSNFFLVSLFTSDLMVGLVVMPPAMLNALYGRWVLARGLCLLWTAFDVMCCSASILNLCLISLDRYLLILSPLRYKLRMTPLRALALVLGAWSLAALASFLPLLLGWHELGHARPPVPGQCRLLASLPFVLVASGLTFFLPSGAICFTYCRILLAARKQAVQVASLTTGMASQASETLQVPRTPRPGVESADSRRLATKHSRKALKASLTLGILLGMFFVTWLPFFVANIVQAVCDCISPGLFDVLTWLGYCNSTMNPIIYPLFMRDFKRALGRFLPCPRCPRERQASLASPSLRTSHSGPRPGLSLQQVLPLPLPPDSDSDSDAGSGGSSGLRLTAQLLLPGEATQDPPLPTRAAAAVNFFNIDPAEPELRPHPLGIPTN
5-HT1D, sequence (P28221 whole entry): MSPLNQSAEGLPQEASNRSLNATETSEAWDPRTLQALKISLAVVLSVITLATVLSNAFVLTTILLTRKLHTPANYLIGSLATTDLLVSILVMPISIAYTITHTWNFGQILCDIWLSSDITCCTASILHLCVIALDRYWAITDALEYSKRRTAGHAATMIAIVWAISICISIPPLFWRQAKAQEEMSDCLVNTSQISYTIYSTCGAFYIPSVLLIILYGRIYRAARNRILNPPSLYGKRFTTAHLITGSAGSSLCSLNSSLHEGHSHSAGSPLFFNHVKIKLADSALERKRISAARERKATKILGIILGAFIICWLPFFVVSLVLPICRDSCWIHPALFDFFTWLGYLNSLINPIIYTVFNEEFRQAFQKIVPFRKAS
5-ht5a, sequence (P47898 whole entry): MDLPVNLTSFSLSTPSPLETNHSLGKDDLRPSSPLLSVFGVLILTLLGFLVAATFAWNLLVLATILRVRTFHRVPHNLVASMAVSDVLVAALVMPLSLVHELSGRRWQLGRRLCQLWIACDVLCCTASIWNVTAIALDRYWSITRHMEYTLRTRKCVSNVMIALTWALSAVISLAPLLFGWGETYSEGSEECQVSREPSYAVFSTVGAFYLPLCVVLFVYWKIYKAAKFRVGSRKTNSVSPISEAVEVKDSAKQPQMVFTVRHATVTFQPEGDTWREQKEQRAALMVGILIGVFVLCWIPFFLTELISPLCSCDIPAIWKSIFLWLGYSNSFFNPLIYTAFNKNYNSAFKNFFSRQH

## COc1cccc(CNCCc2c[nH]c3ccc(OC)cc23)c1 [Compound 5b, N-(3-Methoxybenzyl)-2-(5-methoxy-1H-indol-3-yl)ethan-1-amine]
5-HT2A receptor [1]
  Ki: 7.76 nM
5-HT2A receptor [2]
  Ki: 1.05 nM
Human 5-HT2C receptor [3]
  Ki: 38 nM
Human 5-HT2C receptor [4]
  Ki: 5.89 nM
5-HT2B; 5-HT2B affinity
  Ki: 2.5 nM
5-HT1A; 5-HT1A affinity
  Ki: 335 nM
5-HT1A; 5-HT1A pKi ± SEM
  Ki: 331 nM
5-HT1B; 5-HT1B affinity
  Ki: > 10000 nM
5-HT1D
  Ki: 334 nM
5-ht1e
  Ki: > 10000 nM
5-HT3
  Ki: > 10000 nM
5-ht5a; 5-ht5a affinity
  Ki: 1260 nM
5-HT6; 5-HT6 affinity
  Ki: 25 nM
5-HT7; 5-HT7 affinity
  Ki: 406 nM
r5-HT2A; r5-HT2A EC50, Ca2+ mobilization
  EC50: 34 nM
r5-HT2A; read-out: r5-HT2A Emax, percentage of the maximum response to 5-HT
  Emax: 52.2 ± 0.9%
h5-HT2A
  EC50: 6.2 nM
h5-HT2A; HEK293, read-out: h5-HT2A Emax, percentage of the maximum response to 5-HT
  Emax: 70 ± 1%
h5-HT2B; HEK293, read-out: h5-HT2B Emax
  Emax: ≤ 15%
h5-HT2B; h5-HT2B EC50, Ca2+ mobilization
  EC50: 949 nM
r5-HT2C; r5-HT2C EC50, Ca2+ mobilization
  EC50: 168 nM
r5-HT2C; r5-HT2C pEC50 ± SEM, Ca2+ mobilization
  EC50: 166 nM
r5-HT2C; read-out: r5-HT2C Emax
  Emax: 102 ± 2%
h5-HT2C; HEK293, read-out: h5HT2C Emax
  Emax: 65 ± 5%
h5-HT2C; h5HT2C EC50, Ca2+ mobilization
  EC50: 178 nM
Male C57BL/6J mice; SC
  max counts: 9.2
  active doses: 10 mg/kg
  magnitude of peak effect × vehicle: 3.7 × vehicle
  maximally effective dose: 10 mg/kg
Male C57BL/6J mice; Mus musculus, sc, read-out: ED50 mg/kg (95% CI), mouse head twitch
  ED50: 3.28 mg/kg
Male C57BL/6J mice; SC, doses up to 30 mg/kg
  activity in the HTR assay (active / inactive): active
Male C57BL/6J mice
  HTR at 30 mg/kg: inactive

## COc1ccc2[nH]cc(CCNCc3cccc(C)c3)c2c1 [Compound 5j, N-(3-Methylbenzyl)-2-(5-methoxy-1H-indol-3-yl)ethan-1-amine]
5-HT2A receptor [1]; [3H]ketanserin, n = 3–5 displacement curves
  h5-HT2A pKi ± SEM: 8.32 ± 0.17
5-HT2A receptor [1]; read-out: h5-HT2A Ki, [3H]ketanserin
  Ki: 4.79 nM
5-HT2A receptor [2]; [5]
  h5-HT2A pKi ± SEM: 8.93 ± 0.11
5-HT2A receptor [2]; agonist-labeled receptors
  selectivity h5-HT2A versus h5-HT2C, affinity at the [125I]-DOI-labeled receptors: < 3 fold
5-HT2A receptor [2]; read-out: h5-HT2A Ki, [125I]DOI
  Ki: 1.17 nM
Human 5-HT2C receptor [3]; [3H]mesulergine, n = 3–5 displacement curves
  h5-HT2C pKi ± SEM: 7.65 ± 0.03
Human 5-HT2C receptor [3]; read-out: h5-HT2C Ki, [3H]mesulergine
  Ki: 22.4 nM
Human 5-HT2C receptor [4]; [5]
  h5-HT2C pKi ± SEM: 8.47 ± 0.08
Human 5-HT2C receptor [4]; read-out: h5-HT2C Ki, [125I]DOI
  Ki: 3.39 nM
5-HT2B
  5-HT2B pKi ± SEM: 8.71 ± 0.03
5-HT2B; read-out: 5-HT2B affinity
  Ki: 1.9 nM
5-HT1A
  5-HT1A pKi ± SEM: 6.57 ± 0.04
5-HT1A; read-out: 5-HT1A affinity
  Ki: 271 nM
5-HT1B
  5-HT1B pKi ± SEM: 5.37 ± 0.07
5-HT1B; read-out: 5-HT1B affinity
  Ki: 4240 nM
5-HT1D; PDSP screening, human
  5-HT1D pKi ± SEM: 6.55 ± 0.06
5-HT1D; read-out: 5-HT1D affinity, PDSP screening, human
  Ki: 283 nM
5-ht1e; PDSP screening, human
  5-ht1e pKi ± SEM: 5.41 ± 0.05
5-ht1e; read-out: 5-ht1e affinity, PDSP screening, human
  Ki: 3880 nM
5-HT3; read-out: 5-HT3 affinity, PDSP screening, human
  Ki: > 10000 nM
5-ht5a
  5-ht5a pKi ± SEM: 5.41 ± 0.06
5-ht5a; read-out: 5-ht5a affinity
  Ki: 3850 nM
5-HT6
  5-HT6 pKi ± SEM: 7.21 ± 0.03
5-HT6; read-out: 5-HT6 affinity
  Ki: 62 nM
5-HT7
  5-HT7 pKi ± SEM: 6.67 ± 0.05
5-HT7; read-out: 5-HT7 affinity
  Ki: 212 nM
r5-HT2A; Ca2+ mobilization
  r5-HT2A pEC50 ± SEM: 7.6 ± 0.04
r5-HT2A; [6]
  r5-HT2A Emax: 56.2 ± 0.9%
r5-HT2A; read-out: r5-HT2A EC50, Ca2+ mobilization
  EC50: 26 nM
h5-HT2A; Ca2+ mobilization
  h5-HT2A pEC50 ± SEM: 8.2 ± 0.04
  selectivity in function h5-HT2A vs h5-HT2C: 44 fold
h5-HT2A; [6]
  h5-HT2A Emax: 73.3 ± 1.0%
h5-HT2A; read-out: h5-HT2A EC50, Ca2+ mobilization
  EC50: 6.5 nM
h5-HT2B; Ca2+ mobilization, NA = not active, Emax ≤ 15%
  h5-HT2B pEC50 ± SEM: NA ^b (NA, not active; Emax ≤ 15%)
r5-HT2C; Ca2+ mobilization
  r5-HT2C pEC50 ± SEM: 6.72 ± 0.04
r5-HT2C; [6]
  r5-HT2C Emax: 104 ± 2%
r5-HT2C; read-out: r5-HT2C EC50, Ca2+ mobilization
  EC50: 192 nM
h5-HT2C; Ca2+ mobilization
  h5HT2C pEC50 ± SEM: 6.54 ± 0.10
h5-HT2C; [6]
  h5HT2C Emax: 75 ± 4%
h5-HT2C; read-out: h5HT2C EC50, Ca2+ mobilization
  EC50: 289 nM
Male C57BL/6J mice; SC
  max counts: 14.6
  active doses: 10 mg/kg
  magnitude of peak effect × vehicle: 3.5 × vehicle
  maximally effective dose: 10 mg/kg
Male C57BL/6J mice
  HTR at 30 mg/kg: inactive
